Assay results published in ChEMBL document CHEMBL1201862, “PubChem BioAssay data set” (2004).
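Method: 48-hour compound exposure of cells in 96-well plates, five concentrations, linear interpolation of endpoints. At the GI50, growth is halved.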 The source made the active and inactive calls. No stated cut-off is given here; in the data, active = GI50 up to about 1.1 µM and inactive = higher.

Columns and labels:
Assay in all cases: NCI anticancer screen, dose series, 48 h
M14 = test system: M14
SNB-75 = test system: SNB-75
TK-10 = test system: TK-10
EKVX = test system: EKVX
SF-539 = test system: SF-539
NCI-H522 = test system: NCI-H522
HOP-92 = test system: HOP-92
OVCAR-8 = test system: OVCAR-8
OVCAR-4 = test system: OVCAR-4
HCT-116 = test system: HCT-116
RXF 393 = test system: RXF 393
SK-MEL-28 = test system: SK-MEL-28
K562 = test system: K562
MOLT-4 = test system: MOLT-4
UACC-62 = test system: UACC-62
SF-295 = test system: SF-295
UO-31 = test system: UO-31
HL-60 = test system: HL-60
Malme-3M = test system: Malme-3M
CCRF-CEM = test system: CCRF-CEM

SMILES	GI50 (M14)	GI50 (SNB-75)	GI50 (TK-10)	GI50 (EKVX)	GI50 (SF-539)	GI50 (NCI-H522)	GI50 (HOP-92)	GI50 (OVCAR-8)	GI50 (OVCAR-4)	GI50 (HCT-116)	GI50 (RXF 393)	GI50 (SK-MEL-28)	GI50 (K562)	GI50 (MOLT-4)	GI50 (UACC-62)	GI50 (SF-295)	GI50 (UO-31)	GI50 (HL-60)	GI50 (Malme-3M)	GI50 (CCRF-CEM)
CC12CCC3(C1)[C@H](CC2=O)C[C@@H](OC(=O)c1ccccc1)C1C(C)(CO)CCC[C@@]13C (some centres not stated)	3.61 µM (inactive)	9.14 µM (inactive)	> 21.9 µM (inactive)	3.96 µM (inactive)	6.08 µM (inactive)	2.02 µM (inactive)	3.65 µM (inactive)	3.13 µM (inactive)	1.44 µM (inactive)	2.22 µM (inactive)	1.71 µM (inactive)	13.3 µM (inactive)	0.416 µM (active)	1.54 µM (inactive)	0.0288 µM (active)	0.322 µM (active)	4.15 µM (inactive)	0.327 µM (active)	9.42 µM (inactive)	2.29 µM (inactive)
O=C(O)C12CCCC(CCC1)C2	> 100 µM (inactive)	> 100 µM (inactive)	> 100 µM (inactive)	> 100 µM (inactive)	> 100 µM (inactive)	> 100 µM (inactive)	> 100 µM (inactive)	> 100 µM (inactive)	> 100 µM (inactive)	> 100 µM (inactive)	> 100 µM (inactive)	> 100 µM (inactive)	> 100 µM (inactive)	> 100 µM (inactive)	> 100 µM (inactive)	> 100 µM (inactive)	> 100 µM (inactive)	> 100 µM (inactive)	> 100 µM (inactive)	> 100 µM (inactive)
CN(C)CCCNC(=O)N/N=C/c1ccccn1	> 10 µM (inactive)	> 10 µM (inactive)	> 10 µM (inactive)	> 10 µM (inactive)	> 10 µM (inactive)	> 10 µM (inactive)	> 10 µM (inactive)	> 10 µM (inactive)	> 10 µM (inactive)	> 10 µM (inactive)	> 10 µM (inactive)	> 10 µM (inactive)	> 10 µM (inactive)	> 10 µM (inactive)	> 10 µM (inactive)	> 10 µM (inactive)	> 10 µM (inactive)	> 10 µM (inactive)	> 10 µM (inactive)	> 10 µM (inactive)
O=C1C=C(Br)c2c(Br)sc(Br)c21	4.54 µM (inactive)	18.3 µM (inactive)	6.87 µM (inactive)	18 µM (inactive)	5.13 µM (inactive)	2.07 µM (inactive)	3 µM (inactive)	3.9 µM (inactive)	18 µM (inactive)	6.05 µM (inactive)	8.18 µM (inactive)	18.9 µM (inactive)	4.67 µM (inactive)	2.77 µM (inactive)	14 µM (inactive)	31.6 µM (inactive)	3.4 µM (inactive)	5.36 µM (inactive)	18.6 µM (inactive)	1.59 µM (inactive)
O=C(CCC1C(=O)NC(=S)NC1=O)c1ccc2ccccc2c1	> 100 µM (inactive)	> 100 µM (inactive)	> 100 µM (inactive)	> 100 µM (inactive)	> 100 µM (inactive)	14.8 µM (inactive)	> 100 µM (inactive)	> 100 µM (inactive)	> 100 µM (inactive)	> 100 µM (inactive)	> 100 µM (inactive)	> 100 µM (inactive)	> 100 µM (inactive)	> 100 µM (inactive)	> 100 µM (inactive)	> 100 µM (inactive)	> 100 µM (inactive)	> 100 µM (inactive)	> 100 µM (inactive)	> 100 µM (inactive)
COC(=O)C1=CSC2(S1)C(C(=O)OC)=CSc1c2ssc1=O (configuration not stated)	2.5 µM (inactive)	3.22 µM (inactive)	2.42 µM (inactive)	5.98 µM (inactive)	1.57 µM (inactive)	1.49 µM (inactive)	2.07 µM (inactive)	2.34 µM (inactive)	1.15 µM (inactive)	1.61 µM (inactive)	1.92 µM (inactive)	1.97 µM (inactive)	1.95 µM (inactive)	1.97 µM (inactive)	1.96 µM (inactive)	16.3 µM (inactive)	1.84 µM (inactive)	1.6 µM (inactive)	2 µM (inactive)	0.762 µM (active)
COC1CCC(O)C(CO)O1 (configuration not stated)	43.2 µM (inactive)	> 100 µM (inactive)	> 100 µM (inactive)	> 100 µM (inactive)	41.2 µM (inactive)	13.4 µM (inactive)	> 100 µM (inactive)	> 100 µM (inactive)	> 100 µM (inactive)	> 100 µM (inactive)	> 100 µM (inactive)	> 100 µM (inactive)	11.2 µM (inactive)	27.6 µM (inactive)	> 100 µM (inactive)	> 100 µM (inactive)	> 100 µM (inactive)	31.7 µM (inactive)	20.5 µM (inactive)	10.9 µM (inactive)
Nc1ccc2c(c1)CN1C(=O)c3ccccc3C1=N2 [DANIQUIDONE]	104 µM (inactive)	30.2 µM (inactive)	36.4 µM (inactive)	51.3 µM (inactive)	10.3 µM (inactive)	45.3 µM (inactive)	36.9 µM (inactive)	22 µM (inactive)	91.8 µM (inactive)	16.7 µM (inactive)	34.4 µM (inactive)	> 119 µM (inactive)	67.5 µM (inactive)	3.77 µM (inactive)	32.6 µM (inactive)	12.9 µM (inactive)	27.3 µM (inactive)	8.3 µM (inactive)	67 µM (inactive)	10.7 µM (inactive)
Cc1cc(=O)n2nc(CSc3nnc(S)s3)sc2n1	> 100 µM (inactive)	> 100 µM (inactive)	> 100 µM (inactive)	> 100 µM (inactive)	> 100 µM (inactive)	> 100 µM (inactive)	> 100 µM (inactive)	> 100 µM (inactive)	> 100 µM (inactive)	> 100 µM (inactive)	> 100 µM (inactive)	> 100 µM (inactive)	> 100 µM (inactive)	> 100 µM (inactive)	> 100 µM (inactive)	> 100 µM (inactive)	> 100 µM (inactive)	> 100 µM (inactive)	> 100 µM (inactive)	> 100 µM (inactive)
c1ccc2c(c1)SP1Sc3ccccc3P21 (configuration not stated)	–	61.9 µM (inactive)	–	> 100 µM (inactive)	> 100 µM (inactive)	39.6 µM (inactive)	> 100 µM (inactive)	> 89.3 µM (inactive)	72.3 µM (inactive)	> 80 µM (inactive)	52.7 µM (inactive)	> 90.4 µM (inactive)	> 87.3 µM (inactive)	> 100 µM (inactive)	> 85.1 µM (inactive)	> 100 µM (inactive)	68.1 µM (inactive)	> 72.8 µM (inactive)	> 100 µM (inactive)	> 87.1 µM (inactive)
CC1=C(C)SC(=C2Sc3c(n(C)c(=O)[nH]c3=O)S2)S1	> 100 µM (inactive)	> 100 µM (inactive)	> 100 µM (inactive)	> 100 µM (inactive)	> 100 µM (inactive)	> 100 µM (inactive)	> 100 µM (inactive)	> 100 µM (inactive)	> 100 µM (inactive)	> 100 µM (inactive)	> 100 µM (inactive)	> 100 µM (inactive)	> 100 µM (inactive)	> 100 µM (inactive)	> 100 µM (inactive)	> 100 µM (inactive)	> 100 µM (inactive)	> 100 µM (inactive)	> 100 µM (inactive)	> 100 µM (inactive)
COc1ccc(C2CC(c3c(O)ccc4ccccc34)=NN2)cc1OC (configuration not stated)	4.1 µM (inactive)	1.22 µM (inactive)	3.91 µM (inactive)	6.01 µM (inactive)	4.27 µM (inactive)	1.82 µM (inactive)	3.7 µM (inactive)	2.98 µM (inactive)	6.03 µM (inactive)	–	7.6 µM (inactive)	5.16 µM (inactive)	4.38 µM (inactive)	2.24 µM (inactive)	3.29 µM (inactive)	2.55 µM (inactive)	2.11 µM (inactive)	4.42 µM (inactive)	4.02 µM (inactive)	4.85 µM (inactive)
Cc1cccc(C(C)C)c1NC(=O)CC1Sc2ccccc2NC1=O (configuration not stated)	50.1 µM (inactive)	60.3 µM (inactive)	> 100 µM (inactive)	> 100 µM (inactive)	> 100 µM (inactive)	78.7 µM (inactive)	37.8 µM (inactive)	> 100 µM (inactive)	> 100 µM (inactive)	55.6 µM (inactive)	87.3 µM (inactive)	83.6 µM (inactive)	33.1 µM (inactive)	20.5 µM (inactive)	44.4 µM (inactive)	40.2 µM (inactive)	74.5 µM (inactive)	46.9 µM (inactive)	31.8 µM (inactive)	> 100 µM (inactive)
CC(NNC(=O)c1cc[n+]([BH2-]C#N)cc1)c1ccccc1F (configuration not stated)	> 100 µM (inactive)	> 100 µM (inactive)	> 100 µM (inactive)	> 100 µM (inactive)	> 100 µM (inactive)	> 100 µM (inactive)	> 100 µM (inactive)	> 100 µM (inactive)	> 100 µM (inactive)	> 100 µM (inactive)	> 100 µM (inactive)	> 100 µM (inactive)	> 100 µM (inactive)	> 100 µM (inactive)	> 100 µM (inactive)	> 100 µM (inactive)	> 100 µM (inactive)	> 100 µM (inactive)	> 100 µM (inactive)	> 100 µM (inactive)
